Experimental data as given in patent US11498899B2, “Nitrone herbicides” (FMC Corporation, priority 2016, dated 2022).

Columns and labels:
[1] = tested on: ducksalad (Heteranthera limosa); assay: Test B flooded paddy test, visual rating 0-100; conditions: Flood, 250 g ai/ha, applied to paddy water, rated after 13 to 15 days
[2] = tested on: barnyardgrass (Echinochloa crus-galli); assay: Test B flooded paddy test, visual rating 0-100; conditions: Flood, 250 g ai/ha, applied to paddy water, rated after 13 to 15 days
[3] = tested on: pigweed (Amaranthus retroflexus); assay: Test A postemergence, visual injury rating 0-100; type: in vivo; conditions: 0 to 100 scale
[4] = tested on: blackgrass (Alopecurus myosuroides); assay: Test A postemergence, visual injury rating 0-100; type: in vivo; conditions: 0 to 100 scale
[5] = tested on: ragweed (common ragweed, Ambrosia elatior); assay: Test A postemergence, visual injury rating 0-100; type: in vivo; conditions: 0 to 100 scale
[6] = tested on: wheat (Triticum aestivum); assay: Test A postemergence, visual injury rating 0-100; type: in vivo; conditions: 0 to 100 scale
[7] = tested on: ryegrass, Italian (Italian ryegrass, Lolium multiflorum); assay: Test A postemergence, visual injury rating 0-100; type: in vivo; conditions: 0 to 100 scale
[8] = tested on: galium (catchweed bedstraw, Galium aparine); assay: Test A postemergence, visual injury rating 0-100; type: in vivo; conditions: 0 to 100 scale
[9] = tested on: foxtail, giant (giant foxtail, Setaria faberii); assay: Test A postemergence, visual injury rating 0-100; type: in vivo; conditions: 0 to 100 scale
[10] = tested on: barnyardgrass (Echinochloa crus-galli); assay: Test A postemergence, visual injury rating 0-100; type: in vivo; conditions: 0 to 100 scale
[11] = tested on: corn (Zea mays); assay: Test A postemergence, visual injury rating 0-100; type: in vivo; conditions: 0 to 100 scale
[12] = tested on: kochia (Kochia scoparia); assay: Test A postemergence, visual injury rating 0-100; type: in vivo; conditions: 0 to 100 scale
[13] = tested on: barnyardgrass (Echinochloa crus-galli); assay: Test A preemergence, visual injury rating 0-100 (0 no effect, 100 complete control); type: in vivo; conditions: for Barnyardgrass plant response rating: 31 g ai/ha, 0 to 100 scale (0 no effect, 100 complete control), approx. 10 days
[14] = tested on: pigweed (Amaranthus retroflexus); assay: Test A preemergence, visual injury rating 0-100; type: in vivo; conditions: for Pigweed plant response rating: 31 g ai/ha, 0 to 100 scale (0 no effect, 100 complete control), approx. 10 days
[15] = tested on: ragweed (common ragweed, Ambrosia elatior); assay: Test A preemergence, visual injury rating 0-100; type: in vivo; conditions: for Ragweed plant response rating: 31 g ai/ha, 0 to 100 scale (0 no effect, 100 complete control), approx. 10 days
[16] = tested on: ryegrass, Italian (Italian ryegrass, Lolium multiflorum); assay: Test A preemergence, visual injury rating 0-100; type: in vivo; conditions: for Ryegrass, Italian plant response rating: 31 g ai/ha, 0 to 100 scale (0 no effect, 100 complete control), approx. 10 days
[17] = tested on: foxtail, giant (giant foxtail, Setaria faberii); assay: Test A preemergence, visual injury rating 0-100; type: in vivo; conditions: for Foxtail, Giant plant response rating: 31 g ai/ha, 0 to 100 scale (0 no effect, 100 complete control), approx. 10 days
[18] = tested on: kochia (Kochia scoparia); assay: Test A preemergence, visual injury rating 0-100; type: in vivo; conditions: for Kochia plant response rating: 31 g ai/ha, 0 to 100 scale (0 no effect, 100 complete control), approx. 10 days
[19] = tested on: rice (Oryza sativa); assay: Test B flooded paddy test, visual rating 0-100 (0 no effect, 100 complete control); conditions: Flood, 250 g ai/ha, applied to paddy water, rated after 13 to 15 days

CC1=[N+]([O-])[C@@H](C(=O)Nc2cccc(F)c2F)[C@H](c2cccc(OC(C)(C)C)c2)C1 [Compound 69]
Ducksalad plant response rating (0 to 100 scale) [1]: 95 | Barnyardgrass plant response rating (0 to 100 scale) [2]: 90 | Pigweed plant response rating ([3]; 31 g ai/ha): 0 | Pigweed plant response rating ([3]; 125 g ai/ha): 20 | Blackgrass plant response rating ([4]; 31 g ai/ha): 10 | Blackgrass plant response rating ([4]; 125 g ai/ha): 70 | Ragweed plant response rating ([5]; 31 g ai/ha): 0 | Ragweed plant response rating ([5]; 125 g ai/ha): 20 | Wheat plant response rating ([6]; 31 g ai/ha): 0 | Wheat plant response rating ([6]; 125 g ai/ha): 0 | Ryegrass, Italian plant response rating ([7]; 31 g ai/ha): 30 | Ryegrass, Italian plant response rating ([7]; 125 g ai/ha): 70 | Galium plant response rating ([8]; 31 g ai/ha): 20 | Galium plant response rating ([8]; 125 g ai/ha): 40 | Foxtail, Giant plant response rating ([9]; 31 g ai/ha): 20 | Foxtail, Giant plant response rating ([9]; 125 g ai/ha): 90 | Barnyardgrass plant response rating ([10]; 31 g ai/ha): 30 | Barnyardgrass plant response rating ([10]; 125 g ai/ha): 70 | Corn plant response rating ([11]; 31 g ai/ha): 0 | Corn plant response rating ([11]; 125 g ai/ha): 0 | Kochia plant response rating ([12]; 31 g ai/ha): 0 | Kochia plant response rating ([12]; 125 g ai/ha): 0 | Barnyardgrass plant response rating [13]: 90 | Barnyardgrass plant response rating (0 to 100 scale) ([13]; 125 g ai/ha): 90 | Pigweed plant response rating [14]: 0 | Pigweed plant response rating (0 to 100 scale) ([14]; 125 g ai/ha): 0 | Ragweed plant response rating [15]: 0 | Ragweed plant response rating (0 to 100 scale) ([15]; 125 g ai/ha): 0 | Ryegrass, Italian plant response rating [16]: 20 | Ryegrass, Italian plant response rating (0 to 100 scale) ([16]; 125 g ai/ha): 80 | Foxtail, Giant plant response rating [17]: 90 | Foxtail, Giant plant response rating (0 to 100 scale) ([17]; 125 g ai/ha): 100 | Kochia plant response rating [18]: 0 | Kochia plant response rating (0 to 100 scale) ([18]; 125 g ai/ha): 0 | Rice plant response rating (0 to 100 scale) [19]: 0

CC1=[N+]([O-])[C@@H](C(=O)Nc2cccc(F)c2F)[C@H](c2cccc(Oc3ncc(F)cc3F)c2)C1 [Compound 70]
Ducksalad plant response rating (0 to 100 scale) [1]: 0 | Barnyardgrass plant response rating (0 to 100 scale) [2]: 0 | Pigweed plant response rating ([3]; 31 g ai/ha): 0 | Pigweed plant response rating ([3]; 125 g ai/ha): 20 | Blackgrass plant response rating ([4]; 31 g ai/ha): 0 | Blackgrass plant response rating ([4]; 125 g ai/ha): 30 | Ragweed plant response rating ([5]; 31 g ai/ha): 0 | Ragweed plant response rating ([5]; 125 g ai/ha): 0 | Wheat plant response rating ([6]; 31 g ai/ha): 0 | Wheat plant response rating ([6]; 125 g ai/ha): 0 | Ryegrass, Italian plant response rating ([7]; 31 g ai/ha): 0 | Ryegrass, Italian plant response rating ([7]; 125 g ai/ha): 0 | Galium plant response rating ([8]; 31 g ai/ha): 0 | Galium plant response rating ([8]; 125 g ai/ha): 30 | Foxtail, Giant plant response rating ([9]; 31 g ai/ha): 0 | Foxtail, Giant plant response rating ([9]; 125 g ai/ha): 0 | Barnyardgrass plant response rating ([10]; 31 g ai/ha): 20 | Barnyardgrass plant response rating ([10]; 125 g ai/ha): 70 | Corn plant response rating ([11]; 31 g ai/ha): 0 | Corn plant response rating ([11]; 125 g ai/ha): 0 | Kochia plant response rating ([12]; 31 g ai/ha): 0 | Kochia plant response rating ([12]; 125 g ai/ha): 0 | Barnyardgrass plant response rating [13]: 40 | Barnyardgrass plant response rating (0 to 100 scale) ([13]; 125 g ai/ha): 80 | Pigweed plant response rating [14]: 0 | Pigweed plant response rating (0 to 100 scale) ([14]; 125 g ai/ha): 0 | Ragweed plant response rating [15]: 0 | Ragweed plant response rating (0 to 100 scale) ([15]; 125 g ai/ha): 0 | Ryegrass, Italian plant response rating [16]: 0 | Ryegrass, Italian plant response rating (0 to 100 scale) ([16]; 125 g ai/ha): 0 | Foxtail, Giant plant response rating [17]: 20 | Foxtail, Giant plant response rating (0 to 100 scale) ([17]; 125 g ai/ha): 90 | Kochia plant response rating [18]: 0 | Kochia plant response rating (0 to 100 scale) ([18]; 125 g ai/ha): 0 | Rice plant response rating (0 to 100 scale) [19]: 0

CC1=[N+]([O-])[C@@H](C(=O)Nc2cccc(F)c2F)[C@H](c2cccc(Oc3ccc(F)cn3)c2)C1 [Compound 84]
Ducksalad plant response rating (0 to 100 scale) [1]: 0 | Barnyardgrass plant response rating (0 to 100 scale) [2]: 0 | Pigweed plant response rating ([3]; 125 g ai/ha): 10 | Pigweed plant response rating ([3]; 500 g ai/ha): 40 | Blackgrass plant response rating ([4]; 125 g ai/ha): 90 | Blackgrass plant response rating ([4]; 500 g ai/ha): 90 | Ragweed plant response rating ([5]; 125 g ai/ha): 0 | Ragweed plant response rating ([5]; 500 g ai/ha): 30 | Wheat plant response rating ([6]; 125 g ai/ha): 0 | Wheat plant response rating ([6]; 500 g ai/ha): 50 | Ryegrass, Italian plant response rating ([7]; 125 g ai/ha): 20 | Ryegrass, Italian plant response rating ([7]; 500 g ai/ha): 90 | Galium plant response rating ([8]; 125 g ai/ha): 40 | Galium plant response rating ([8]; 500 g ai/ha): 40 | Foxtail, Giant plant response rating ([9]; 125 g ai/ha): 50 | Foxtail, Giant plant response rating ([9]; 500 g ai/ha): 70 | Barnyardgrass plant response rating ([10]; 125 g ai/ha): 40 | Barnyardgrass plant response rating ([10]; 500 g ai/ha): 90 | Corn plant response rating ([11]; 125 g ai/ha): 0 | Corn plant response rating ([11]; 500 g ai/ha): 40 | Kochia plant response rating ([12]; 125 g ai/ha): 0 | Kochia plant response rating ([12]; 500 g ai/ha): 20 | Barnyardgrass plant response rating (0 to 100 scale) ([13]; 125 g ai/ha): 10 | Barnyardgrass plant response rating (0 to 100 scale) ([13]; 500 g ai/ha): 90 | Pigweed plant response rating (0 to 100 scale) ([14]; 125 g ai/ha): 0 | Pigweed plant response rating (0 to 100 scale) ([14]; 500 g ai/ha): 30 | Ragweed plant response rating (0 to 100 scale) ([15]; 125 g ai/ha): 0 | Ragweed plant response rating (0 to 100 scale) ([15]; 500 g ai/ha): 20 | Ryegrass, Italian plant response rating (0 to 100 scale) ([16]; 125 g ai/ha): 0 | Ryegrass, Italian plant response rating (0 to 100 scale) ([16]; 500 g ai/ha): 80 | Foxtail, Giant plant response rating (0 to 100 scale) ([17]; 125 g ai/ha): 30 | Foxtail, Giant plant response rating (0 to 100 scale) ([17]; 500 g ai/ha): 90 | Kochia plant response rating (0 to 100 scale) ([18]; 125 g ai/ha): 0 | Kochia plant response rating (0 to 100 scale) ([18]; 500 g ai/ha): 50 | Rice plant response rating (0 to 100 scale) [19]: 0

CC1=[N+]([O-])C(C(=O)Nc2cccc(F)c2F)C(c2cccc(Cl)n2)C1 (centres unmarked) [Compound 89]
Ducksalad plant response rating (0 to 100 scale) [1]: 30 | Barnyardgrass plant response rating (0 to 100 scale) [2]: 0 | Pigweed plant response rating ([3]; 125 g ai/ha): 0 | Pigweed plant response rating ([3]; 500 g ai/ha): 0 | Blackgrass plant response rating ([4]; 125 g ai/ha): 0 | Blackgrass plant response rating ([4]; 500 g ai/ha): 0 | Ragweed plant response rating ([5]; 125 g ai/ha): 0 | Ragweed plant response rating ([5]; 500 g ai/ha): 0 | Wheat plant response rating ([6]; 125 g ai/ha): 0 | Wheat plant response rating ([6]; 500 g ai/ha): 0 | Ryegrass, Italian plant response rating ([7]; 125 g ai/ha): 0 | Ryegrass, Italian plant response rating ([7]; 500 g ai/ha): 0 | Galium plant response rating ([8]; 125 g ai/ha): 0 | Galium plant response rating ([8]; 500 g ai/ha): 0 | Foxtail, Giant plant response rating ([9]; 125 g ai/ha): 0 | Foxtail, Giant plant response rating ([9]; 500 g ai/ha): 0 | Barnyardgrass plant response rating ([10]; 125 g ai/ha): 20 | Barnyardgrass plant response rating ([10]; 500 g ai/ha): 30 | Corn plant response rating ([11]; 125 g ai/ha): 0 | Corn plant response rating ([11]; 500 g ai/ha): 0 | Kochia plant response rating ([12]; 125 g ai/ha): 0 | Kochia plant response rating ([12]; 500 g ai/ha): 0 | Barnyardgrass plant response rating (0 to 100 scale) ([13]; 125 g ai/ha): 0 | Barnyardgrass plant response rating (0 to 100 scale) ([13]; 500 g ai/ha): 40 | Pigweed plant response rating (0 to 100 scale) ([14]; 125 g ai/ha): 0 | Pigweed plant response rating (0 to 100 scale) ([14]; 500 g ai/ha): 0 | Ragweed plant response rating (0 to 100 scale) ([15]; 125 g ai/ha): 0 | Ragweed plant response rating (0 to 100 scale) ([15]; 500 g ai/ha): 0 | Ryegrass, Italian plant response rating (0 to 100 scale) ([16]; 125 g ai/ha): 0 | Ryegrass, Italian plant response rating (0 to 100 scale) ([16]; 500 g ai/ha): 0 | Foxtail, Giant plant response rating (0 to 100 scale) ([17]; 125 g ai/ha): 0 | Foxtail, Giant plant response rating (0 to 100 scale) ([17]; 500 g ai/ha): 30 | Kochia plant response rating (0 to 100 scale) ([18]; 125 g ai/ha): 0 | Kochia plant response rating (0 to 100 scale) ([18]; 500 g ai/ha): 0 | Rice plant response rating (0 to 100 scale) [19]: 0
